Source: US20250107543A1, “TREATMENT OF AGRICULTURAL, FOOD AND RELATED PRODUCTS FOR ELIMINATING CONTAMINANTS AND ENCHANCING SHELF-LIFE” (priority 2022, published 2025)

Key:
weevils and weevil eggs [1] = assay: Shelf-Life Assessment of Groundnut; set-up: key to Visual observation: Powder at the bottom of bag / Weevils/Insects / Visual observation: Pin holes on grain: ✓ Not observed; x Observed; details: for Visual observation: Pin holes on grain / Visual observation: Powder at the bottom of bag / Weevils/Insects: Treated sample
Description: (§1) The data presented in Table-5 illustrates the efficiency of the system of the present disclosure in pre-conditioning and deactivation of weevils and weevil eggs results in delayed occurrence of insect infestation in grains.
(§2) Grains such as Dry corn, Groundnut, Rice & Wheat were separately pre-conditioned and decontaminated in the system of the present disclosure. Grains were exposed to trioxygen gas for up to 5 minutes. The products were put under pressure of trioxygen gas for a span of 9 minutes to 26 minutes. Trioxygen gas having capacity 500 g/h was generated by the trioxygen generator of the system (on site) with a constant oxygen flow rate and delivered to the decontamination chamber through silicon tube. All products were treated with hot air and then analyzed for the presence of the weevils and weevil eggs the results obtained are summarized in Table-5.

weevils and weevil eggs [2] = assay: Shelf-Life Assessment of Rice; set-up: key to Visual observation: Pin holes on grain / Visual observation: Powder at the bottom of bag / Weevils/Insects: ✓ Not observed; x Observed; details: for Visual observation: Pin holes on grain / Visual observation: Powder at the bottom of bag / Weevils/Insects: Treated sample
Description: as §1, §2

weevils and weevil eggs [3] = assay: Shelf-Life Assessment of Wheat; set-up: key to Visual observation: Pin holes on grain / Visual observation: Powder at the bottom of bag / Weevils/Insects: ✓ Not observed; x Observed; details: for Visual observation: Pin holes on grain / Visual observation: Powder at the bottom of bag / Weevils/Insects: Treated sample
Description: as §1, §2

Salmonella = Salmonella presence in treated whole red chilli; details: whole red chilli 12 kg's, Trial 1
Description: This experiment illustrates the treatment of aerobic micro-organisms, yeast, mould, coliform, E. coli, Salmonella and fat soluble metabolites contaminated whole red chilli.
The data presented in Table-2 illustrate the efficacy of the present disclosure in detoxifying contaminated whole red chillies. […].
The red chillies were exposed with Trioxygen for 2 minutes. The products were put under pressure of trioxygen gas for a span of 9 minutes to 26 minutes. Based on the commodity characteristics, the exposure of trioxygen gas was repeated 10 times. Trioxygen gas having a capacity 500 g/h was generated by the trioxygen generator (on site) of the system with a constant oxygen flow rate and delivered to the decontamination chamber through silicon tube. The whole red chillies were then treated to heated air.

[4] = Pesticide residue in treated whole red chilli: Novaluron; details: whole red chilli 12 kg's, Trial 1; HOCL and Trioxygen simultaneously
Source text: This experiment illustrates the treatment of whole red chilli contaminated with pesticide residues.
The data presented in Table-6 illustrates the efficacy of the present disclosure in detoxifying contaminated whole red chillies. Sets of whole red chillies of 12 kg's contaminated with pesticides like Azoxystrobin, Imidacloprid Novaluron and Myclobutanil were used for the experiment. An inert gas (Nitrogen & Carbon-di-oxide) were introduced into the chamber filled with the material to drive out existing air and oxygen in the chamber. Pre-conditioning was carried out with HOCL and trioxygen being introduced simultaneously in decontamination chamber with faster decontamination process in the system with a shorter timeline protocol.
The red chillies were exposed with HOCL and Trioxygen simultaneously for 2 minutes. The products were put under pressure of 2 bar of trioxygen gas for a span of 9 minutes to 26 minutes. Based on the commodity characteristics, the exposure of trioxygen gas was repeated 10 times. Trioxygen gas having a capacity 500 g/h was generated by the trioxygen generator (on site) of the system with a constant oxygen flow rate and delivered to the decontamination chamber through silicon tube. The whole red chillies were then treated to heated air.

In the case of `O=[O+][O-]` [Trioxygen], the “No weevil infestation in system treated samples up to” value (“No weevil infestation” below) (weevils and weevil eggs [1]) is reported as “up to 6 months”, the “Treatment effective in delaying infestation up to” value (“Treatment effective” for short) (weevils and weevil eggs [1]) is reported as “up to 6 months” and the “Remarks on Weevils/Insects, Treated” value (weevils and weevil eggs [1]; Post 1.5 Months) is reported as “No weevils/insects”. The “Remarks on Weevils/Insects, Treated” value (weevils and weevil eggs [1]; Post 2 Months) was “No weevils/insects”, the “Remarks on Weevils/Insects, Treated” value (weevils and weevil eggs [1]; Post 3 Months) was “No weevils/insects” and the “Remarks on Weevils/Insects, Treated” value (weevils and weevil eggs [1]; Post 5 Months) was “No weevils/insects”. The “Remarks on Weevils/Insects, Treated” value (weevils and weevil eggs [1]; Post 6 Months) was “No weevils/insects”, the “Remarks on Weevils/Insects, Treated: insect observed alive, buff/cream, 5 mm long” value (weevils and weevil eggs [1]; Post 7 Months) was 1 insect observed - and the “Visual observation: Pin holes on grain” value (weevils and weevil eggs [1]; 1.5 Months) was “✓”. The “Visual observation: Powder at the bottom of bag” value (“Visual observation: Powder” below) (weevils and weevil eggs [1]; 1.5 Months) was “✓”, the Weevils/Insects (weevils and weevil eggs [1]; 1.5 Months) was “✓” and the “Visual observation: Pin holes on grain” value (weevils and weevil eggs [1]; 2 Months) was “✓”. For the same molecule, the “Visual observation: Powder” value (weevils and weevil eggs [1]; 2 Months) was “✓”, the Weevils/Insects (weevils and weevil eggs [1]; 2 Months) was “✓” and the “Visual observation: Pin holes on grain” value (weevils and weevil eggs [1]; 3 Months) was “✓”. The “Visual observation: Powder” value (weevils and weevil eggs [1]; 3 Months) was “✓”, the Weevils/Insects (weevils and weevil eggs [1]; 3 Months) was “✓” and the “Visual observation: Pin holes on grain” value (weevils and weevil eggs [1]; 5 Months) was “✓”. For the same molecule, the “Visual observation: Powder” value (weevils and weevil eggs [1]; 5 Months) was “✓”, the Weevils/Insects (weevils and weevil eggs [1]; 5 Months) was “✓” and the “Visual observation: Pin holes on grain” value (weevils and weevil eggs [1]; 6 Months) was “✓”. The “Visual observation: Powder” value (weevils and weevil eggs [1]; 6 Months) was “✓”, the Weevils/Insects (weevils and weevil eggs [1]; 6 Months) was “✓” and the “Visual observation: Pin holes on grain” value (weevils and weevil eggs [1]; 7 Months) was “✓”. The “Visual observation: Powder” value (weevils and weevil eggs [1]; 7 Months) was “✓”, the Weevils/Insects (weevils and weevil eggs [1]; 7 Months) was “x” and the “Number of weevils in treated sample, times less than that in control sample” value (weevils and weevil eggs [1]; at month 7) was 3 times. For the same molecule, the “No weevil infestation” value (weevils and weevil eggs [2]) was “up to 6 months”, the “Treatment effective” value (weevils and weevil eggs [2]) was “up to 6 months” and the “Remarks on Weevils/Insects, Treated” value (weevils and weevil eggs [2]; Post 1.5 Months) was “No weevils/insects seen”. For the same molecule, the “Remarks on Weevils/Insects, Treated” value (weevils and weevil eggs [2]; Post 2 Months) was “No weevils/insects seen”, the “Remarks on Weevils/Insects, Treated” value (weevils and weevil eggs [2]; Post 3 Months) was “No weevils/insects seen” and the “Remarks on Weevils/Insects, Treated” value (weevils and weevil eggs [2]; Post 5 Months) was “No weevils/insects seen”. For the same molecule, the “Remarks on Weevils/Insects, Treated” value (weevils and weevil eggs [2]; Post 6 Months) was “No weevils/insects seen”, the “Remarks on Weevils/Insects, Treated: black insect alive” value (weevils and weevil eggs [2]; Post 7 Months) was “insects and 1 black insect” and the “Remarks on Weevils/Insects, Treated: small cream coloured insects alive” value (weevils and weevil eggs [2]; Post 7 Months) was 1 small cream coloured. The “Visual observation: Pin holes on grain” value (weevils and weevil eggs [2]; 1.5 Months) was “✓”, the “Visual observation: Powder” value (weevils and weevil eggs [2]; 1.5 Months) was “✓” and the Weevils/Insects (weevils and weevil eggs [2]; 1.5 Months) was “✓”. The “Visual observation: Pin holes on grain” value (weevils and weevil eggs [2]; 2 Months) was “✓”, the “Visual observation: Powder” value (weevils and weevil eggs [2]; 2 Months) was “✓” and the Weevils/Insects (weevils and weevil eggs [2]; 2 Months) was “✓”. The “Visual observation: Pin holes on grain” value (weevils and weevil eggs [2]; 3 Months) was “✓”, the “Visual observation: Powder” value (weevils and weevil eggs [2]; 3 Months) was “✓” and the Weevils/Insects (weevils and weevil eggs [2]; 3 Months) was “✓”. For the same molecule, the “Visual observation: Pin holes on grain” value (weevils and weevil eggs [2]; 5 Months) was “✓”, the “Visual observation: Powder” value (weevils and weevil eggs [2]; 5 Months) was “✓” and the Weevils/Insects (weevils and weevil eggs [2]; 5 Months) was “✓”. The “Visual observation: Pin holes on grain” value (weevils and weevil eggs [2]; 6 Months) was “✓”, the “Visual observation: Powder” value (weevils and weevil eggs [2]; 6 Months) was “✓” and the Weevils/Insects (weevils and weevil eggs [2]; 6 Months) was “✓”. For the same molecule, the “Visual observation: Pin holes on grain” value (weevils and weevil eggs [2]; 7 Months) was “✓”, the “Visual observation: Powder” value (weevils and weevil eggs [2]; 7 Months) was “✓” and the Weevils/Insects (weevils and weevil eggs [2]; 7 Months) was “x”. The “No weevil infestation” value (weevils and weevil eggs [3]) was “up to 3 months”, the “Treatment effective” value (weevils and weevil eggs [3]) was “up to 6 months” and the “Remarks on Weevils/Insects, Treated” value (weevils and weevil eggs [3]; Post 1.5 Months) was “No weevils/insects”. For the same molecule, the “Remarks on Weevils/Insects, Treated” value (weevils and weevil eggs [3]; Post 2 Months) was “No weevils/insects”, the “Remarks on Weevils/Insects, Treated” value (weevils and weevil eggs [3]; Post 3 Months) was “No weevils/insects” and the “Remarks on Weevils/Insects, Treated: cream/buff colour insect (3 mm) observed alive” value (weevils and weevil eggs [3]; Post 5 Months) was 2 cream/buff colour. For the same molecule, the “Remarks on Weevils/Insects, Treated: cream/buff colour insect (3 mm) observed alive” value (weevils and weevil eggs [3]; Post 6 Months) was 3 cream/buff colour, the “Remarks on Weevils/Insects, Treated: cream/buff colour insect (3 mm) observed alive” value (weevils and weevil eggs [3]; Post 7 Months) was 3 cream/buff colour and the “Visual observation: Pin holes on grain” value (weevils and weevil eggs [3]; 1.5 Months) was “✓”. For the same molecule, the “Visual observation: Powder” value (weevils and weevil eggs [3]; 1.5 Months) was “✓”, the Weevils/Insects (weevils and weevil eggs [3]; 1.5 Months) was “✓” and the “Visual observation: Pin holes on grain” value (weevils and weevil eggs [3]; 2 Months) was “✓”. For the same molecule, the “Visual observation: Powder” value (weevils and weevil eggs [3]; 2 Months) was “✓”, the Weevils/Insects (weevils and weevil eggs [3]; 2 Months) was “✓” and the “Visual observation: Pin holes on grain” value (weevils and weevil eggs [3]; 3 Months) was “✓”. For the same molecule, the “Visual observation: Powder” value (weevils and weevil eggs [3]; 3 Months) was “✓”, the Weevils/Insects (weevils and weevil eggs [3]; 3 Months) was “✓” and the “Visual observation: Pin holes on grain” value (weevils and weevil eggs [3]; 5 Months) was “✓”. For the same molecule, the “Visual observation: Powder” value (weevils and weevil eggs [3]; 5 Months) was “✓”, the Weevils/Insects (weevils and weevil eggs [3]; 5 Months) was “x” and the “Visual observation: Pin holes on grain” value (weevils and weevil eggs [3]; 6 Months) was “✓”. The “Visual observation: Powder” value (weevils and weevil eggs [3]; 6 Months) was “✓”, the Weevils/Insects (weevils and weevil eggs [3]; 6 Months) was “x” and the “Visual observation: Pin holes on grain” value (weevils and weevil eggs [3]; 7 Months) was “✓”. For the same molecule, the “Visual observation: Powder” value (weevils and weevil eggs [3]; 7 Months) was “✓”, the Weevils/Insects (weevils and weevil eggs [3]; 7 Months) was “x” and the “Number of weevils in treated sample compared to those in control, times less” value (weevils and weevil eggs [3]; at month 5) was 4 times. The “Salmonella, % Reduction” value (Salmonella) was 100%, the “Salmonella, Results After Treatment” value (Salmonella; before treatment Present/25 g) was “Absent/25 g” and the “Novaluron, % Reduction” value [4] was 100%.
